Experimental data: ChEMBL document CHEMBL1148263, “Solid-phase synthesis of kojic acid-tripeptides and their tyrosinase inhibitory activity, storage stability, and toxicity” (Bioorg Med Chem Lett, 2004)

Tests used:
Assay type in all cases: functional, Mus musculus
[1] = Cytotoxicity of compound against Melan-a cells determined as percent cell survival at 100 ppm
[2] = Cytotoxicity of compound against Melan-a cells determined as percent cell survival at 1 ppm
[3] = Cytotoxicity of compound against Melan-a cells determined as percent cell survival at 10 ppm

Compound	Cell survival [1] [%]	Cell survival [2] [%]	Cell survival [3] [%]
O=c1cc(CO)occ1O [KOJIC ACID]	86.92	91.75	92.36
NCCCC[C@H](NC(=O)OCc1cc(=O)c(O)co1)C(=O)N[C@@H](CCC(=O)O)C(=O)N[C@@H](Cc1ccc(O)cc1)C(=O)O	100.81	98.38	98.78
O=C(N[C@@H](Cc1ccccc1)C(=O)N[C@@H](Cc1ccccc1)C(=O)N[C@@H](Cc1ccc(O)cc1)C(=O)O)OCc1cc(=O)c(O)co1	104.36	91.62	94.66
O=C(N[C@@H](Cc1ccccc1)C(=O)N[C@@H](Cc1c[nH]c2ccccc12)C(=O)N[C@@H](Cc1ccc(O)cc1)C(=O)O)OCc1cc(=O)c(O)co1	128.08	125.51	128.73
O=C(N[C@@H](Cc1ccccc1)C(=O)N[C@@H](Cc1ccc(O)cc1)C(=O)N[C@@H](Cc1ccc(O)cc1)C(=O)O)OCc1cc(=O)c(O)co1	124.4	124.4	128.62
